Patent US20260193293A1, “PEPTIDES CAPABLE OF INHIBITING PROTEIN-PROTEIN INTERACTIONS AT GABAB1A SUBUNIT AND USES THEREOF” (UNIVERSITY OF COPENHAGEN, priority 2022, published 2026)
Like-named read-outs stand apart in the source and are kept apart here. One block for each compound: values may come before it. Non-standard residues stand in square brackets, D forms with d. Residues, ends and D or L forms follow the SMILES beside them. *: point of attachment. NMeT = CN[C@H](C(=O)O)[C@@H](C)O; NMeD = CN[C@@H](CC(=O)O)C(=O)O; NMeA = CN[C@@H](C)C(=O)O; Bn = c1ccc(C*)cc1; Sar = CNCC(=O)O

Target: Sushi domains (SD1/2) protein
Assay: Fluorescence polarization (FP) competition assay with AJAP-1probe, calculated Ki
Format: binding
Settings: read-out: Ki (nM) mean ± SEM
Procedure: Fluorescence polarization (FP). FP assay was employed to determine the binding affinity of peptides in flat bottom black 384-well plates (Corning Life Science) using a Safire2 plate reader (Tecan). All experiments were conducted in 1×PBS (pH 7.4) containing 1% bovine serum albumin (BSA) at rt. The fluorescence polarization values were measured using excitation/emission wavelengths of 530/580 nm. The instrumental Z-factor was adjusted to obtain the maximum fluorescence intensity and the G-factor was calibrated to give an initial millipolarization value of 20 mP. All FP assays including saturation or competition experiments were performed using 25 nM of TAMRA labeled peptides as probes. For saturation assay, the millipolarization values were measured after mixing of probes with 12 serial 1 to 1 diluted concentrations of Sushi domains (SD1/2) protein. All experiments were performed in triplicate and the data were plotted to the one-site binding model using GraphPad Prism 9 to calculate the Kd of probes. […] The experiments were performed at least in triplicate and the data were fitted to the sigmoidal dose response curve using GraphPad Prism 9 to obtain the IC50 of peptides. The Ki values were calculated according to Nikolovska-Coleska et al^310.

[1] = Table 7, Ala-, D-amino acids and N-methylation scans of APPWT
[2] = Table 10, deep mutational scanning validation variants of APPWT
[3] = Table 13, peptides for affinity maturation
[4] = Table 16, ncAAs incorporated peptides

Structure (SMILES): CC(=O)N[C@@H](CCC(=O)O)C(=O)N[C@@H](CC(=O)O)C(=O)N[C@@H](CC(=O)O)C(=O)N[C@@H](CO)C(=O)N[C@@H](CC(=O)O)C(=O)N[C@H](C(=O)N[C@@H](Cc1c[nH]c2ccccc12)C(=O)N[C@@H](Cc1c[nH]c2ccccc12)C(=O)NCC(=O)NCC(=O)N[C@@H](C)C(=O)N[C@@H](CC(=O)O)C(=O)N[C@H](C(=O)N[C@@H](CC(=O)O)C(=O)N[C@@H](Cc1ccc(O)cc1)C(=O)N[C@@H](C)C(=O)N[C@@H](CC(=O)O)C(N)=O)[C@@H](C)O)C(C)C (Ac-EDDSDVWWGGADTDYAD-NH2)
Ki (Table 4, truncation and elongation scans of APP epitope): 281 ± 4 nM

Structure (SMILES): CC(=O)N[C@@H](CCC(=O)O)C(=O)N[C@@H](CC(=O)O)C(=O)N[C@@H](CC(=O)O)C(=O)N[C@@H](CO)C(=O)N[C@@H](CC(=O)O)C(=O)N[C@H](C(=O)N[C@@H](Cc1c[nH]c2ccccc12)C(=O)N[C@@H](Cc1c[nH]c2ccccc12)C(=O)NCC(=O)NCC(=O)N[C@@H](C)C(=O)N[C@@H](CC(=O)O)C(=O)N[C@H](C(=O)N(C)[C@@H](CC(=O)O)C(N)=O)[C@@H](C)O)C(C)C (Ac-EDDSDVWWGGADT[NMeD]-NH2)
Ki [1]: 565 ± 23 nM

Structure (SMILES): CC(=O)N[C@@H](CCC(=O)O)C(=O)N[C@@H](CC(=O)O)C(=O)N[C@@H](CC(=O)O)C(=O)N[C@@H](CO)C(=O)N[C@@H](CC(=O)O)C(=O)N[C@H](C(=O)N[C@@H](Cc1c[nH]c2ccccc12)C(=O)N[C@@H](Cc1c[nH]c2ccccc12)C(=O)NCC(=O)NCC(=O)N[C@@H](C)C(=O)N[C@@H](CC(=O)O)C(=O)N[C@@H](Cc1c[nH]c2ccccc12)C(=O)N[C@@H](CC(=O)O)C(N)=O)C(C)C (Ac-EDDSDVWWGGADWD-NH2)
Ki [2]: 459 ± 21 nM

Structure (SMILES): CC(=O)N[C@@H](CCC(=O)O)C(=O)N[C@@H](CC(=O)O)C(=O)N[C@@H](CC(=O)O)C(=O)N[C@@H](CO)C(=O)N[C@@H](CC(=O)O)C(=O)N[C@H](C(=O)N[C@@H](Cc1c[nH]c2ccccc12)C(=O)N[C@@H](Cc1c[nH]c2ccccc12)C(=O)NCC(=O)NCC(=O)N[C@@H](C)C(=O)N[C@@H](CC(=O)O)C(=O)N(C)[C@H](C(=O)N[C@@H](CC(=O)O)C(N)=O)[C@@H](C)O)C(C)C (Ac-EDDSDVWWGGAD[NMeT]D-NH2)
Ki [1]: 503 ± 13 nM

Structure (SMILES): CC(=O)N[C@@H](CCC(=O)O)C(=O)N[C@@H](CC(=O)O)C(=O)N[C@@H](CC(=O)O)C(=O)N[C@@H](CO)C(=O)N[C@@H](CC(=O)O)C(=O)N[C@H](C(=O)N[C@@H](Cc1c[nH]c2ccccc12)C(=O)N[C@@H](Cc1c[nH]c2ccccc12)C(=O)NCC(=O)NCC(=O)N[C@@H](C)C(=O)N(C)[C@@H](CC(=O)O)C(=O)N[C@H](C(=O)N[C@@H](CC(=O)O)C(N)=O)[C@@H](C)O)C(C)C (Ac-EDDSDVWWGGA[NMeD]TD-NH2)
Ki [1]: 403 ± 14 nM

Structure (SMILES): CC(=O)N[C@@H](CCC(=O)O)C(=O)N[C@@H](CC(=O)O)C(=O)N[C@@H](CC(=O)O)C(=O)N[C@@H](CO)C(=O)N[C@@H](CC(=O)O)C(=O)N[C@H](C(=O)N[C@@H](Cc1c[nH]c2ccccc12)C(=O)N[C@@H](Cc1c[nH]c2ccccc12)C(=O)NCC(=O)NCC(=O)N[C@@H](Cc1ccc(O)cc1)C(=O)N[C@@H](CC(=O)O)C(=O)N[C@H](C(=O)N[C@@H](CC(=O)O)C(N)=O)[C@@H](C)O)C(C)C (Ac-EDDSDVWWGGYDTD-NH2)
Ki [2]: 255 ± 11 nM

Structure (SMILES): CC(=O)N[C@@H](CCC(=O)O)C(=O)N[C@@H](CC(=O)O)C(=O)N[C@@H](CC(=O)O)C(=O)N[C@@H](CO)C(=O)N[C@@H](CC(=O)O)C(=O)N[C@H](C(=O)N[C@@H](Cc1c[nH]c2ccccc12)C(=O)N[C@@H](Cc1c[nH]c2ccccc12)C(=O)N[C@@H](Cc1ccc(OCc2ccccc2)cc1)C(=O)NCC(=O)N[C@@H](C)C(=O)N[C@@H](CC(=O)O)C(=O)N[C@H](C(=O)N[C@@H](CC(=O)O)C(N)=O)[C@@H](C)O)C(C)C (Ac-EDDSDVWWY(Bn)GADTD-NH2)
Ki [4]: 88 ± 4 nM

Structure (SMILES): CC(=O)N[C@@H](CCC(=O)O)C(=O)N[C@@H](CC(=O)O)C(=O)N[C@@H](CC(=O)O)C(=O)N[C@@H](CO)C(=O)N[C@@H](CC(=O)O)C(=O)N[C@H](C(=O)N[C@@H](Cc1c[nH]c2ccccc12)C(=O)N[C@@H](Cc1c[nH]c2ccccc12)C(=O)N[C@@H](Cc1ccc(O)cc1)C(=O)NCC(=O)N(C)CC(=O)N[C@H](C(=O)NCC(=O)N[C@@H](CC(=O)O)C(=O)N[C@@H](CCC(=O)O)C(=O)N[C@@H](CC(=O)O)C(N)=O)[C@@H](C)O)C(C)C (Ac-EDDSDVWWYG[Sar]TGDED-NH2)
Ki [3]: 138 ± 5 nM

Structure (SMILES): CC(=O)N[C@@H](CCC(=O)O)C(=O)N[C@@H](CC(=O)O)C(=O)N[C@@H](CC(=O)O)C(=O)N[C@@H](CO)C(=O)N[C@@H](CC(=O)O)C(=O)N[C@H](C(=O)N[C@@H](Cc1c[nH]c2ccccc12)C(=O)N[C@@H](Cc1c[nH]c2ccccc12)C(=O)N[C@@H](Cc1ccc(O)cc1)C(=O)N(C)CC(=O)N[C@@H](C)C(=O)N[C@@H](CC(=O)O)C(=O)N[C@H](C(=O)N[C@@H](CC(=O)O)C(N)=O)[C@@H](C)O)C(C)C (Ac-EDDSDVWWY[Sar]ADTD-NH2)
Ki [3]: 201 ± 6 nM

The remaining lines, values ahead:

Ki [2]: 346 ± 6 nM
Structure (SMILES): CC(=O)N[C@@H](CCC(=O)O)C(=O)N[C@@H](CC(=O)O)C(=O)N[C@@H](CC(=O)O)C(=O)N[C@@H](CO)C(=O)N[C@@H](CC(=O)O)C(=O)N[C@H](C(=O)N[C@@H](Cc1c[nH]c2ccccc12)C(=O)N[C@@H](Cc1c[nH]c2ccccc12)C(=O)NCC(=O)NCC(=O)N[C@@H](Cc1c[nH]cn1)C(=O)N[C@@H](CC(=O)O)C(=O)N[C@H](C(=O)N[C@@H](CC(=O)O)C(N)=O)[C@@H](C)O)C(C)C (Ac-EDDSDVWWGGHDTD-NH2)

Ki [2]: 204 ± 4 nM
Structure (SMILES): CC(=O)N[C@@H](CCC(=O)O)C(=O)N[C@@H](CC(=O)O)C(=O)N[C@@H](CC(=O)O)C(=O)N[C@@H](CO)C(=O)N[C@@H](CC(=O)O)C(=O)N[C@H](C(=O)N[C@@H](Cc1c[nH]c2ccccc12)C(=O)N[C@@H](Cc1c[nH]c2ccccc12)C(=O)NCC(=O)NCC(=O)N[C@@H](CO)C(=O)N[C@@H](CC(=O)O)C(=O)N[C@H](C(=O)N[C@@H](CC(=O)O)C(N)=O)[C@@H](C)O)C(C)C (Ac-EDDSDVWWGGSDTD-NH2)

Ki [1]: 704 ± 11 nM
Structure (SMILES): CC(=O)N[C@@H](CCC(=O)O)C(=O)N[C@@H](CC(=O)O)C(=O)N[C@@H](CC(=O)O)C(=O)N[C@@H](CO)C(=O)N[C@@H](CC(=O)O)C(=O)N[C@H](C(=O)N[C@@H](Cc1c[nH]c2ccccc12)C(=O)N[C@@H](Cc1c[nH]c2ccccc12)C(=O)NCC(=O)NCC(=O)N(C)[C@@H](C)C(=O)N[C@@H](CC(=O)O)C(=O)N[C@H](C(=O)N[C@@H](CC(=O)O)C(N)=O)[C@@H](C)O)C(C)C (Ac-EDDSDVWWGG[NMeA]DTD-NH2)

Ki [2]: 332 ± 13 nM
Structure (SMILES): CC(=O)N[C@@H](CCC(=O)O)C(=O)N[C@@H](CC(=O)O)C(=O)N[C@@H](CC(=O)O)C(=O)N[C@@H](CO)C(=O)N[C@@H](CC(=O)O)C(=O)N[C@H](C(=O)N[C@@H](Cc1c[nH]c2ccccc12)C(=O)N[C@@H](Cc1c[nH]c2ccccc12)C(=O)NCC(=O)N1CCC[C@H]1C(=O)N[C@@H](C)C(=O)N[C@@H](CC(=O)O)C(=O)N[C@H](C(=O)N[C@@H](CC(=O)O)C(N)=O)[C@@H](C)O)C(C)C (Ac-EDDSDVWWGPADTD-NH2)

Ki [1]: 161 ± 2 nM | Ki [3]: 161 ± 2 nM
Structure (SMILES): CC(=O)N[C@@H](CCC(=O)O)C(=O)N[C@@H](CC(=O)O)C(=O)N[C@@H](CC(=O)O)C(=O)N[C@@H](CO)C(=O)N[C@@H](CC(=O)O)C(=O)N[C@H](C(=O)N[C@@H](Cc1c[nH]c2ccccc12)C(=O)N[C@@H](Cc1c[nH]c2ccccc12)C(=O)NCC(=O)N(C)CC(=O)N[C@@H](C)C(=O)N[C@@H](CC(=O)O)C(=O)N[C@H](C(=O)N[C@@H](CC(=O)O)C(N)=O)[C@@H](C)O)C(C)C (Ac-EDDSDVWWG[Sar]ADTD-NH2)

Ki [2]: 270 ± 4 nM
Structure (SMILES): CC(=O)N[C@@H](CCC(=O)O)C(=O)N[C@@H](CC(=O)O)C(=O)N[C@@H](CC(=O)O)C(=O)N[C@@H](CO)C(=O)N[C@@H](CC(=O)O)C(=O)N[C@H](C(=O)N[C@@H](Cc1c[nH]c2ccccc12)C(=O)N[C@@H](Cc1c[nH]c2ccccc12)C(=O)N[C@@H](Cc1c[nH]cn1)C(=O)NCC(=O)N[C@@H](C)C(=O)N[C@@H](CC(=O)O)C(=O)N[C@H](C(=O)N[C@@H](CC(=O)O)C(N)=O)[C@@H](C)O)C(C)C (Ac-EDDSDVWWHGADTD-NH2)

Ki [4]: 113 ± 2 nM
Structure (SMILES): CCOc1ccc(C[C@H](NC(=O)[C@H](Cc2c[nH]c3ccccc23)NC(=O)[C@H](Cc2c[nH]c3ccccc23)NC(=O)[C@@H](NC(=O)[C@H](CC(=O)O)NC(=O)[C@H](CO)NC(=O)[C@H](CC(=O)O)NC(=O)[C@H](CC(=O)O)NC(=O)[C@H](CCC(=O)O)NC(C)=O)C(C)C)C(=O)NCC(=O)N[C@@H](C)C(=O)N[C@@H](CC(=O)O)C(=O)N[C@H](C(=O)N[C@@H](CC(=O)O)C(N)=O)[C@@H](C)O)cc1 (Ac-EDDSDVWWY(Et)GADTD-NH2)

Ki [4]: 109 ± 4 nM
Structure (SMILES): COc1ccc(C[C@H](NC(=O)[C@H](Cc2c[nH]c3ccccc23)NC(=O)[C@H](Cc2c[nH]c3ccccc23)NC(=O)[C@@H](NC(=O)[C@H](CC(=O)O)NC(=O)[C@H](CO)NC(=O)[C@H](CC(=O)O)NC(=O)[C@H](CC(=O)O)NC(=O)[C@H](CCC(=O)O)NC(C)=O)C(C)C)C(=O)NCC(=O)N[C@@H](C)C(=O)N[C@@H](CC(=O)O)C(=O)N[C@H](C(=O)N[C@@H](CC(=O)O)C(N)=O)[C@@H](C)O)cc1 (Ac-EDDSDVWWY(Me)GADTD-NH2)

Ki [3]: 164 ± 2 nM
Structure (SMILES): CC(=O)N[C@@H](CCC(=O)O)C(=O)N[C@@H](CC(=O)O)C(=O)N[C@@H](CC(=O)O)C(=O)N[C@@H](CO)C(=O)N[C@@H](CC(=O)O)C(=O)N[C@H](C(=O)N[C@@H](Cc1c[nH]c2ccccc12)C(=O)N[C@@H](Cc1c[nH]c2ccccc12)C(=O)N[C@@H](Cc1ccc(O)cc1)C(=O)NCC(=O)N(C)CC(=O)N[C@@H](C)C(=O)N[C@@H](CC(=O)O)C(=O)N[C@H](C(=O)N[C@@H](CC(=O)O)C(N)=O)[C@@H](C)O)C(C)C (Ac-EDDSDVWWYG[Sar]ADTD-NH2)
